Series [1] is described as follows: The drug is tested on Eubacterium ventriosum strain: ATCC27560 for biotransformation. The drug concentrations were measured before and after a 12-h incubation by liquid-chromatography-coupled mass spectrometry (LC–MS). Set-up: dose 2 uM, timepoint 0 vs 12 hours. Format: ADME. Conditions: 2 µM.
The conditions of series [2]: bacteroides thetaiotaomicron, 12 h, 2 µM.
Description: The drug is tested on Bacteroides thetaiotaomicron strain: 7330 for biotransformation. The drug concentrations were measured before and after a 12-h incubation by liquid-chromatography-coupled mass spectrometry (LC–MS)
Series [3] is described as follows: The drug is tested on Subdoligranulum variabile strain: DSM15176 for biotransformation. The drug concentrations were measured before and after a 12-h incubation by liquid-chromatography-coupled mass spectrometry (LC–MS). Particulars: 2 µM.
A short description of series [4]: The drug is tested on Clostridium ramosum strain: DSM1402 for biotransformation. The drug concentrations were measured before and after a 12-h incubation by liquid-chromatography-coupled mass spectrometry (LC–MS). Conditions: thomasclavelia ramosa, 2 µM.
Series [5] in a line: The drug is tested on Alistipes indistinctus strain: DSM22520 for biotransformation. The drug concentrations were measured before and after a 12-h incubation by liquid-chromatography-coupled mass spectrometry (LC–MS). Conditions: 2 µM.
A short description of series [6]: The drug is tested on Providencia stuartii strain: ATCC25827 for biotransformation. The drug concentrations were measured before and after a 12-h incubation by liquid-chromatography-coupled mass spectrometry (LC–MS). Conditions: 2 µM.
A short description of series [7]: The drug is tested on Blautia luti strain: DSM14534 for biotransformation. The drug concentrations were measured before and after a 12-h incubation by liquid-chromatography-coupled mass spectrometry (LC–MS). It counts as ADME. Also on record: dose 2 uM, timepoint 0 vs 12 hours. Conditions: 2 µM.
For series [8] the following is noted: segatella copri, 12 h, 2 µM.
Description: The drug is tested on Prevotella copri strain: DSM18205 for biotransformation. The drug concentrations were measured before and after a 12-h incubation by liquid-chromatography-coupled mass spectrometry (LC–MS)
Series [9] in a line: The drug is tested on Collinsella intestinalis strain: DSM13280 for biotransformation. The drug concentrations were measured before and after a 12-h incubation by liquid-chromatography-coupled mass spectrometry (LC–MS). Particulars: 2 µM.
For series [10] the following is noted: bacteroides fragilis, 12 h, 2 µM.
Description: The drug is tested on Bacteroides fragilis strain: 3397 (T10) for biotransformation. The drug concentrations were measured before and after a 12-h incubation by liquid-chromatography-coupled mass spectrometry (LC–MS)
For series [11] the following is noted: bacteroides thetaiotaomicron, 12 h, 2 µM. The source holds these as a separate data set.
Description: The drug is tested on Bacteroides thetaiotaomicron strain: 3731 for biotransformation. The drug concentrations were measured before and after a 12-h incubation by liquid-chromatography-coupled mass spectrometry (LC–MS)
The nature of series [12]: The drug is tested on Bacteroides fragilis strain: ATCC43859 for biotransformation. The drug concentrations were measured before and after a 12-h incubation by liquid-chromatography-coupled mass spectrometry (LC–MS). Conditions: 2 µM.
For series [13] the following is noted: akkermansia muciniphila, 12 h, 2 µM.
Description: The drug is tested on Akkermansia muciniphila strain: ATCC BAA-835 for biotransformation. The drug concentrations were measured before and after a 12-h incubation by liquid-chromatography-coupled mass spectrometry (LC–MS)
A short description of series [14]: The drug is tested on Bacteroides pectinophilus strain: ATCC43243 for biotransformation. The drug concentrations were measured before and after a 12-h incubation by liquid-chromatography-coupled mass spectrometry (LC–MS). Particulars: 2 µM.
Series [15] is described as follows: The drug is tested on Blautia hansenii strain: DSM20583 for biotransformation. The drug concentrations were measured before and after a 12-h incubation by liquid-chromatography-coupled mass spectrometry (LC–MS). Conditions: 2 µM.
Series [16] is described as follows: The drug is tested on Clostridium sporogenes strain: ATCC15579 for biotransformation. The drug concentrations were measured before and after a 12-h incubation by liquid-chromatography-coupled mass spectrometry (LC–MS). Particulars: 2 µM.
A short description of series [17]: The drug is tested on Bacteroides xylanisolvens strain: DSM18836 for biotransformation. The drug concentrations were measured before and after a 12-h incubation by liquid-chromatography-coupled mass spectrometry (LC–MS). Particulars: 2 µM.
The conditions of series [18]: enterocloster bolteae, 12 h, 2 µM.
Description: The drug is tested on Clostridium bolteae strain: ATCCBAA-613 for biotransformation. The drug concentrations were measured before and after a 12-h incubation by liquid-chromatography-coupled mass spectrometry (LC–MS)
Series [19] can be described thus: The drug is tested on Bacteroides finegoldii strain: DSM17565 for biotransformation. The drug concentrations were measured before and after a 12-h incubation by liquid-chromatography-coupled mass spectrometry (LC–MS). Particulars: 2 µM.
Series [20] is described as follows: The drug is tested on Coprococcus comes strain: ATCC27758 for biotransformation. The drug concentrations were measured before and after a 12-h incubation by liquid-chromatography-coupled mass spectrometry (LC–MS). It counts as ADME. Set-up: dose 2 uM, timepoint 0 vs 12 hours. Particulars: 2 µM.

Seven compounds from ChEMBL document CHEMBL5303573, “Mapping human microbiome drug metabolism by gut bacteria and their genes” (Nature, 2019) can be followed below.

Molecules are shown by their SMILES. Non-standard residues stand in square brackets, D forms with d. Residues, ends and D or L forms follow the SMILES beside them. pGlu = O=C1CC[C@@H](C(=O)O)N1; Thz = O=C(O)[C@@H]1CSCN1

In the case of `CN1C(C(=O)Nc2ccccn2)=C(O)c2sccc2S1(=O)=O` [TENOXICAM], the “Bacterial Biotransformation” value in series [1], in series [2], in series [3], in [4], in series [5] and in series [6] was “Compound NOT metabolized” in each case. Moreover, the “Bacterial Biotransformation” value in series [7], in series [8], in [9], in series [10], in [11] and in series [12] was “Compound NOT metabolized” in each case. Further, the “Bacterial Biotransformation” value in series [13], in series [14], in [15] and in [16] was “Compound NOT metabolized” throughout.
For `Nc1nc2ccc(OC(F)(F)F)cc2s1` [RILUZOLE], the “Bacterial Biotransformation” value in series [2] was “Compound metabolized”; in [17], “Compound metabolized”; in series [3], “Compound NOT metabolized”; in series [4] it was “Compound NOT metabolized”; in series [18] it was “Compound NOT metabolized”; in [5], “Compound NOT metabolized”. Moreover, the “Bacterial Biotransformation” value was “Compound NOT metabolized” in [6]; “Compound NOT metabolized” in [8]; “Compound NOT metabolized” in series [9]; “Compound NOT metabolized” in series [10]; “Compound NOT metabolized” in series [11]; “Compound metabolized” in [12]. Also, the “Bacterial Biotransformation” value in series [13] is “Compound NOT metabolized”; in series [14], “Compound NOT metabolized”; in series [19], “Compound NOT metabolized”; in [15] it was “Compound metabolized”; in series [16] it was “Compound NOT metabolized”.
On to `CCOc1ccccc1OCCN[C@H](C)Cc1ccc(OC)c(S(N)(=O)=O)c1.Cl` [TAMSULOSIN HYDROCHLORIDE], for which the “Bacterial Biotransformation” value in series [1], in series [2], in series [17], in series [3], in series [4] and in [20] was “Compound NOT metabolized” each time. Besides, the “Bacterial Biotransformation” value in series [18], in [5], in series [6], in series [7], in series [8] and in series [9] was “Compound NOT metabolized” each time. The “Bacterial Biotransformation” value in [10], in series [11], in series [12], in series [13], in series [14] and in series [19] was “Compound NOT metabolized” throughout. Moreover, in [15], the “Bacterial Biotransformation” value was “Compound NOT metabolized”.
Consider `O=C(NCc1ccccc1)OCCO` [BURAMATE], for which the “Bacterial Biotransformation” value in series [1], in series [2], in [17], in series [3], in series [4] and in series [20] was “Compound NOT metabolized” in each case. Besides, the “Bacterial Biotransformation” value in series [18], in series [5], in series [7], in [8], in [9] and in [10] was “Compound NOT metabolized” in each case. The “Bacterial Biotransformation” value in [11], in series [12], in series [13], in [14], in series [19] and in [15] was “Compound NOT metabolized” in each case. Also, in series [16], the “Bacterial Biotransformation” value is “Compound NOT metabolized”.
For `C[C@@H](c1ncncc1F)[C@](O)(Cn1cncn1)c1ccc(F)cc1F` [VORICONAZOLE], the “Bacterial Biotransformation” value in series [1] is recorded as “Compound NOT metabolized”; in series [2], “Compound metabolized”; in series [17] it was “Compound metabolized”; in [3], “Compound NOT metabolized”; in series [4] it was “Compound NOT metabolized”; in series [20], “Compound NOT metabolized”. For the same compound, the “Bacterial Biotransformation” value in series [18], in series [5], in [6], in series [7], in series [8] and in series [9] was “Compound NOT metabolized” throughout. Besides, the “Bacterial Biotransformation” value is “Compound metabolized” in series [10]; “Compound metabolized” in series [12]; “Compound NOT metabolized” in [13]; “Compound NOT metabolized” in [14]; “Compound NOT metabolized” in series [19]; “Compound NOT metabolized” in series [15]. Besides, the “Bacterial Biotransformation” value in series [16] is on record as “Compound NOT metabolized”.
For `CN1[C@@H]2CC[C@H]1C[C@@H](OC(=O)c1c[nH]c3ccccc13)C2` [TROPISETRON], the “Bacterial Biotransformation” value in series [1], in [2], in [17], in series [3], in [4] and in series [20] was “Compound NOT metabolized” each time. The “Bacterial Biotransformation” value in [18], in [5], in series [6], in series [7], in series [8] and in series [9] was “Compound NOT metabolized” each time. In addition, the “Bacterial Biotransformation” value in series [10], in series [11], in [12], in [13], in [14] and in series [19] was “Compound NOT metabolized” throughout. Besides, in series [15], the “Bacterial Biotransformation” value is “Compound NOT metabolized”.
For the compound `O=C1CC[C@@H](C(=O)N2CSC[C@H]2C(=O)O)N1` [PIDOTIMOD] ([pGlu]-[Thz]-OH), the “Bacterial Biotransformation” value in series [1] was “Compound NOT metabolized”; in [2] it was “Compound metabolized”; in series [3] it was “Compound NOT metabolized”; in series [4] it was “Compound NOT metabolized”; in [20], “Compound NOT metabolized”; in series [18], “Compound NOT metabolized”. The “Bacterial Biotransformation” value in series [5] was “Compound NOT metabolized”; in series [6], “Compound NOT metabolized”; in [7], “Compound NOT metabolized”; in [8], “Compound metabolized”; in [9] it was “Compound NOT metabolized”; in series [10], “Compound metabolized”. For the same compound, the “Bacterial Biotransformation” value is recorded as “Compound metabolized” in series [12], “Compound NOT metabolized” in series [13], “Compound NOT metabolized” in series [14] and “Compound metabolized” in [15].
